In the test the target is CDK2/Cyclin E1 (Homo sapiens, UniProt P24941). The experiment in a line: CDK2/Cyclin E1 Caliper LabChip EZ Reader mobility shift assay. It is filed as biochemical. The arrangement: purchased Eurofins 14-475. The note with it: read-out: Caliper Assay (CDK2/CCNE1): IC50. The procedure: Inhibition of CDK2/Cyclin E1 activity in the presence of compounds of the present disclosure was evaluated using a Caliper LabChip® EZ Reader mobility shift assay. In the assay, CDK2/Cyclin E1 (Eurofins, 14-475) catalyzed the phosphorylation of a fluorescently tagged peptide 5-FAM-QSPKKG-CONH2 (PerkinElmer, FL Peptide 18) which induced a difference in capillary electrophoresis mobility. The peptide substrate and product were measured, and the conversion ratio was used to determine the inhibition (as % activity and IC50 values) of CDK2/Cyclin E1. Reactions contained 50 mM HEPES pH 7.5, 10 mM MgCl2, 1 mM EDTA, 2 mM DTT, 0.01% Brij35, 0.5 mg/mL BSA, 0.1% DMSO, 2.5 nM CDK2/Cyclin E1, 100 μM ATP, and 1.5 μM fluorescent peptide substrate.
Dose titrations of inhibitors in 100% DMSO were combined with 3.25 nM CDK2/Cyclin E1 and 130 μM of ATP in reaction buffer. The mixtures were incubated for 30 minutes before the addition of fluorescent peptide substrate to initiate the kinase reaction. The final conditions were 2.5 nM CDK2/Cyclin E1, 100 μM ATP, and 1.5 μM fluorescent peptide. The reactions were stopped after 100 minutes with the addition of EDTA (400 mM final EDTA concentration). The stopped reactions were analyzed on a Caliper LabChip® EZ Reader II. The conversion ratios were normalized to yield % activity, plotted against compound concentration, and fit to a four-parameter equation to determine the IC50 for each compound.
As to `C[C@@H](OCC1CCCCC1)[C@H](NC(=O)[C@@H]1CN(C(=O)c2cnn(Cc3ccccc3)c2)CC12CN(C(=O)[C@H]1CC1(C)C)C2)C(=O)N1CCC(n2cccn2)CC1` [I-439], the IC50 is at most 10 nM.
To `COc1cccc(CNC(=O)[C@@H]2CN(C(=O)c3cnn(Cc4ccccc4)c3)CC23CN(C(=O)[C@H]2CC2(C)C)C3)n1` [I-126A] belongs above 10000 nM.
Consider `CNC(=O)[C@@H](NC(=O)[C@H]1CN(C(=O)c2cnn(Cc3ccccc3)c2)CC12CN(C(=O)[C@H]1CC1(C)C)C2)[C@@H](C)OCC1CCCC1` [I-110B], for which the IC50 fell in the range of 100 to 1000 nM.
In the case of `COC[C@H]1CCCN(C(=O)[C@@H](NC(=O)C2CN(C(=O)c3cncs3)CC23CN(C(=O)[C@H]2CC2(C)C)C3)[C@@H](C)OCC2CCCCC2)C1` (stereo partly drawn) [I-196 mixture] it was at most 10 nM.
To `CNC(=O)[C@@H](NC(=O)[C@H]1CN(C(=O)c2nccs2)CC12CN(C(=O)[C@H]1CC1(C)C)C2)[C@@H](C)OCC1CCCCC1` [I-146] belongs above 10000 nM.
As to `CC1(C)C[C@@H]1C(=O)N1CC2(CN(C(=O)c3cnn(Cc4ccccc4)c3)C[C@H]2C(=O)NCCOCc2ccccc2)C1` [I-96A], the IC50 was in the range of 100 to 1000 nM.
In the case of `C[C@@H](OCC1CCCCC1)[C@H](NC(=O)C1CN(C(=O)c2cnn(Cc3ccccc3)c2)CC12CN(C(=O)[C@H]1CC1(C)C)C2)C(=O)N1CCC(F)(F)CC1` (stereo partly drawn) [I-149 mixture] it was at most 10 nM; in that of `CNC(=O)[C@@H](NC(=O)[C@@H]1CN(Cc2cnco2)CC12CN(C(=O)[C@H]1CC1(C)C)C2)[C@@H](C)OCc1ccccc1` [I-78A, (S)—N-((2S,3R)-3-(benzyloxy)-1-(methylamino)-1-oxobutan-2-yl)-2-((S)-2,2-dimethylcyclopropane-1-carbonyl)-6-(oxazol-5-ylmethyl)-2,6-diazaspiro[3.4]octane-8-carboxamide], above 10000 nM; in that of `CNC(=O)[C@@H](NC(=O)[C@@H]1CN(C(=O)c2cnn(CC(F)(F)F)c2)CC12CN(C(=O)CC1CC1)C2)[C@@H](C)OCc1ccccc1` [I-43A], above 10000 nM.
Turning to `CNC(=O)[C@@H](NC(=O)[C@H]1CN(C(=O)c2cnc(Cl)s2)CC12CN(C(=O)[C@H]1CC1(C)C)C2)[C@@H](C)OCC1CCCCC1` [I-189B], the IC50 is above 10000 nM.
To `CC1(C)C[C@@H]1C(=O)N1CC2(CN(C(=O)c3cnn(Cc4ccccc4)c3)C[C@@H]2C(=O)NC2CCCN(C(=O)c3ccccc3)C2)C1` (stereo partly drawn) [I-59B] belongs above 10000 nM.
In the case of `C[C@@H](OCC1CCC(F)(F)CC1)[C@H](NC(=O)C1CN(C(=O)c2cncs2)CC12CN(C(=O)[C@H]1CC1(C)C)C2)C(=O)N1CCC(OC(F)(F)F)CC1` (stereo partly drawn) [I-394] it was at most 10 nM.
In the case of `CO[C@@H]1CC[C@H](NC(=O)[C@@H]2CN(C(=O)c3cnn(Cc4ccccc4)c3)CC23CN(C(=O)[C@H]2CC2(C)C)C3)C1` [I-248] it was above 10000 nM; in that of `CCC(CC)C(=O)N1CC2(CN(C(=O)c3cnn(Cc4ccccc4)c3)C[C@@H]2C(=O)N[C@H](C(=O)NC)[C@@H](C)OCc2ccccc2)C1` [I-74B], above 10000 nM; in that of `Cc1ccc(CNC(=O)[C@H]2CN(C(=O)c3cnn(Cc4ccccc4)c3)CC23CN(C(=O)[C@H]2CC2(C)C)C3)nn1` [I-381], above 10000 nM.
`CC1(C)C[C@@H]1C(=O)N1CC2(CN(C(=O)c3cnn(Cc4ccccc4)c3)C[C@H]2C(=O)NCc2cccnn2)C1` [I-359]: the IC50 was above 10000 nM.
In the case of `CNC(=O)[C@@H](NC(=O)[C@H]1CN(C(=O)c2cnn(Cc3ccc(F)cc3)c2)CC12CN(C(=O)[C@H]1CC1(C)C)C2)[C@@H](C)OCC1CCC(F)(F)CC1` [I-167] it was 100 to 1000 nM.
Turning to `C[C@@H](OCC1CCC(F)(F)CC1)[C@H](NC(=O)[C@@H]1CN(C(=O)c2cn[nH]c2)CC12CN(C(=O)C1(C(F)(F)F)CC1)C2)C(=O)N1CCC(F)(F)CC1` [I-188A], the IC50 was 10 to 100 nM.
To `C[C@@H](NC(=O)[C@H]1CN(C(=O)c2cnn(Cc3ccccc3)c2)CC12CN(C(=O)[C@H]1CC1(C)C)C2)c1cccc(F)c1` [I-128B] belongs above 10000 nM.
In the case of `COC[C@H]1CCCN(C(=O)[C@@H](NC(=O)[C@@H]2CN(C(=O)c3cncs3)CC23CN(C(=O)[C@H]2CC2(C)C)C3)[C@@H](C)OCC2CCC3(CCC3)CC2)C1` [I-390] it was at most 10 nM; in that of `CNC(=O)[C@@H](NC(=O)[C@@H]1CN(C(=O)c2cnc(C(C)(C)C)s2)CC12CN(C(=O)[C@H]1CC1(C)C)C2)[C@@H](C)OCC1CCCCC1` [I-229A], above 10000 nM; in that of `C[C@@H](OCc1ccccc1)[C@H](NC(=O)C1CN(C(=O)c2cnn(Cc3ccccc3)c2)CC12CN(C(=O)[C@H]1CC1(C)C)C2)C(=O)N1CCNCC1` (stereo partly drawn) [I-32], 10 to 100 nM.
To `CC(C)(O)C(NC(=O)[C@@H]1CN(C(=O)c2cncs2)CC12CN(C(=O)C(C)(C)C1CC1)C2)c1cccc(C2CCOCC2)n1` (stereo partly drawn) [I-339] belongs 1000 to 10000 nM.
Take `COC[C@H]1CCCN(C(=O)[C@@H](NC(=O)[C@H]2CN(C(=O)c3cncs3)CC23CN(C(=O)[C@H]2CC2(C)C)C3)[C@@H](C)OCC2CCCCC2)C1` [I-196B]: the IC50 is at most 10 nM.
To `C[C@@H](OCC1CCCCC1)[C@H](NC(=O)[C@@H]1CN(C(=O)c2cnn(Cc3ccccc3)c2)CC12CN(C(=O)[C@H]1CC1(C)C)C2)C(=O)N1CC[C@@H]1CN` [I-270] belongs 10 to 100 nM; to `CNC(=O)[C@@H](NC(=O)[C@H]1CN(C(=O)c2cnn(Cc3ccccc3)c2)CC12CN(C(=O)[C@H]1CC1(C)C)C2)[C@@H](C)OCC(C)(C)C` [I-130B], 100 to 1000 nM.
Turning to `Cc1nc(C)c(C(=O)N2C[C@@H](C(=O)NC(c3cccc(C4CCOCC4)n3)C(C)(C)O)C3(C2)CN(C(=O)[C@H]2CC2(C)C)C3)s1` (stereo partly drawn) [I-437], the IC50 is above 10000 nM.
As to `CNC(=O)[C@@H](NC(=O)[C@H]1CN(C(=O)c2cnn(Cc3ccccc3)c2)CC12CN(C(=O)C(C)(C)C)C2)[C@@H](C)OCc1ccccc1` [I-65B], the IC50 is above 10000 nM.
Take `CNC(=O)[C@@H](NC(=O)[C@@H]1CN(Cc2cn[nH]c2)CC12CN(C(=O)[C@H]1CC1(C)C)C2)[C@@H](C)OCc1ccccc1` [I-50A]: the IC50 is above 10000 nM.
To `COCC1CCCN(C(=O)[C@@H](NC(=O)C2CN(C(=O)c3cnn(Cc4ccccc4)c3)CC23CN(C(=O)[C@H]2CC2(C)C)C3)[C@@H](C)OCc2ccccc2)C1` (stereo partly drawn) [I-64] belongs 10 to 100 nM.
In the case of `CNC(=O)[C@@H](NC(=O)[C@@H]1CN(C(=O)c2cnn(Cc3ccccc3)c2)CC12CN(C(=O)[C@H]1CC1(C)C)C2)[C@@H](C)OCC1(C(F)(F)F)CC1` [I-205A] it was 100 to 1000 nM; in that of `CCC(CC)C(=O)N1CC2(CN(C(=O)c3cnn(Cc4ccccc4)c3)C[C@H]2C(=O)N[C@H](C(=O)NC)[C@@H](C)OCc2ccccc2)C1` [I-74A], 1000 to 10000 nM.
In the case of `CNC(=O)[C@@H](NC(=O)[C@@H]1CN(C(=O)c2cncs2)CC12CN(C(=O)[C@H]1CC1(C)C)C2)[C@@H](C)OC1CC2CCC1CC2` (stereo partly drawn) [I-464], the IC50 is 10 to 100 nM.
As for `CNC(=O)[C@@H](NC(=O)[C@@H]1CN(C(=O)c2sc(Cl)nc2Cl)CC12CN(C(=O)[C@H]1CC1(C)C)C2)[C@@H](C)OCC1CCCCC1` [I-232A], the IC50 is 10 to 100 nM.
Consider `C[C@@H](OCC1CCCCC1)[C@H](NC(=O)[C@@H]1CN(C(=O)c2cnn(Cc3ccccc3)c2)CC12CN(C(=O)[C@H]1CC1(C)C)C2)C(=O)N1CCOCC1` [I-152A], for which the IC50 is at most 10 nM.
In the case of `CC1(C)C[C@@H]1C(=O)N1CC2(CN(C(=O)c3cnn(Cc4ccccc4)c3)C[C@H]2C(=O)N2CCC(OCc3ccccc3)CC2)C1` [I-214], the IC50 is 1000 to 10000 nM.
To `CNC(=O)[C@@H](NC(=O)[C@@H]1CN(C(=O)c2scnc2Cl)CC12CN(C(=O)[C@H]1CC1(C)C)C2)[C@@H](C)OCC1CCCCC1` [I-157A] belongs 10 to 100 nM.
Consider `CNC(=O)[C@@H](NC(=O)[C@H]1CN(C(=O)c2cnn(Cc3ccccc3)c2)CC12CN(C(=O)Cc1ccccc1)C2)[C@@H](C)OCc1ccccc1` [I-25B], for which the IC50 is above 10000 nM.
As for `CN(C(=O)[C@@H]1CCCN(C(=O)[C@@H]2CN(C(=O)c3cnn(Cc4ccccc4)c3)CC23CN(C(=O)[C@H]2CC2(C)C)C3)C1)C1CCCCC1` [I-181], the IC50 lay in the range of 1000 to 10000 nM.
As to `CNC(=O)[C@@H](NC(=O)[C@H]1CN(C(=O)c2cnn(Cc3ccccc3)c2)CC12CN(C(=O)CC1(CO)CC1)C2)[C@@H](C)OCc1ccccc1` [I-92B], the IC50 is above 10000 nM.
In the case of `CNC(=O)[C@@H](NC(=O)[C@@H]1CN(C(=O)c2cncs2)CC12CN(Cc1ccco1)C2)[C@@H](C)OCC12CCC(CC1)OC2` [I-349] it was above 10000 nM; in that of `CNC(=O)[C@@H](NC(=O)[C@H]1CN(C(=O)Nc2cnn(Cc3ccccc3)c2)CC12CN(C(=O)[C@H]1CC1(C)C)C2)[C@@H](C)OCc1ccccc1` [I-48B], above 10000 nM.
To `COC1CCN(C(=O)[C@@H](NC(=O)[C@@H]2CN(C(=O)c3sc(C)nc3C)CC23CN(C(=O)[C@H]2CC2(C)C)C3)[C@@H](C)OCC23CCC(CC2)OC3)CC1` [I-451] belongs 10 to 100 nM.
In the case of `COC[C@H]1CCCN(C(=O)[C@@H](NC(=O)[C@@H]2CN(C(=O)c3cncs3)CC23CN(C(=O)[C@H]2CC2(C)C)C3)[C@@H](C)OC(C)C2CCC(F)(F)CC2)C1` (stereo partly drawn) [I-360] it was at most 10 nM; in that of `C[C@@H](OCC1CCC(F)(F)CC1)[C@H](NC(=O)[C@@H]1CN(C(=O)c2cncs2)CC12CN(C(=O)[C@H]1CC1(C)C)C2)C(C)(C)O` [I-313], at most 10 nM.
